Data: paper PMC9478638 (Proceedings of the National Academy of Sciences of the …, 2022)

Experiments:
Dgt–Gp1.2 complex = molecular target: T1, Dgt–Gp1.2 complex (Escherichia coli; Escherichia phage T7, UniProt P03780+P15723); experiment: PNP/xanthine oxidase coupled dGTPase assay, A297; format: biochemical
T1 sequence (P15723 1-505): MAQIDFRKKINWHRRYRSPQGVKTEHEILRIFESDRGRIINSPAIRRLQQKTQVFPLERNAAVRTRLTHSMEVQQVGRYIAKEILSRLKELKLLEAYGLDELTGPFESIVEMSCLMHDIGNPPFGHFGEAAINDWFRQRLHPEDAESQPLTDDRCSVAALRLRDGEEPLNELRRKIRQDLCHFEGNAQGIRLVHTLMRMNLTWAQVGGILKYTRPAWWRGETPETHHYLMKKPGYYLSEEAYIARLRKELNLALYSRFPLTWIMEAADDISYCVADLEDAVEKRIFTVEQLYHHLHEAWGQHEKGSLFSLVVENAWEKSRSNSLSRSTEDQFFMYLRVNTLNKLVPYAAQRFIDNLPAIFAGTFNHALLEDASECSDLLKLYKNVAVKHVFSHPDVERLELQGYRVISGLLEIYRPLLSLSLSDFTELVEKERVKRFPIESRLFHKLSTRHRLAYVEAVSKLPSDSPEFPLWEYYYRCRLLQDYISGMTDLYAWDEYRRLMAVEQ
T1 sequence (P03780 2-85): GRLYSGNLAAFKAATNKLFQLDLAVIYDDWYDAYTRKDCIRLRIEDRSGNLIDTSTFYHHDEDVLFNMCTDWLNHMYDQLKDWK

E. coli Dgt = molecular target: T2, E. coli Dgt (Escherichia coli, UniProt P15723); experiment: PNP/xanthine oxidase coupled dGTPase assay, A297; format: biochemical
T2 sequence (P15723 1-505): T1 sequence (P15723 1-505)

IC50 (Dgt–Gp1.2 complex): 0.31 ± 0.05 µM
Ki (E. coli Dgt): 120 ± 50 µM
Structure (SMILES): Nc1nc2c(ncn2[C@@H]2O[C@H](COP(=O)(O)OP(=O)(O)OP(=O)(O)O)[C@@H](O)[C@H]2O)c(=O)[nH]1 [GTP]
